Data: patent US9139523B2, “5-HT2B receptor antagonists” (Janssen Pharmaceutica, NV, priority 2010, dated 2015)
Read-outs that look alike come from different tables or passages of the source.

Columns and labels:
[1] = Cardiovascular effects in the anaesthetized guinea-pig; assay type: in vivo; details: female, plasma, iv, guinea pig, end of 5-min i.v. infusion; for concentration at 5 min: read-out: Median plasma level; for Cmax: read-out: Median plasma level (Cmax)
Description: Female guinea-pigs were anesthetized with sodium pentobarbital (66 mg/kg i.p.) followed by a continuous i.v. infusion of 6 mg/h of sodium pentobarbital and prepared for measurements of the surface electrocardiogram (ECG), heart rate and mean arterial blood pressure (see De Clerck et al, Fundam. Clin. Pharm.; 2002; 16: 125-140). Compound (−)-17 was dissolved in 20% hydroxypropyl-cyclodextrin with NaOH, HCl and mannitol in pyrogen-free water and administered intravenously (0.5 ml/kg) in increasing doses (0.16, 0.32, 0.64, 1.25, 2.5 and 5 mg/kg) over a period of 5 min at 15-min intervals. Plasma concentrations of Compound (−)-17 were measured at the end of each infusion. Corresponding volumes of vehicle were administered according to the same protocol in a second group of animals.

[2] = Cardio-hemodynamic, cardio-electrophysiological, EEG and pulmonary effects in ventilated, anesthetized dogs; assay type: in vivo, dog; details: Beagle, plasma, iv, dog, 5-min i.v. infusion
Description: (§1) The animals were anesthetized with a mixture of 0.015 mg/kg i.v. scopolamine and 0.075 mg/kg i.v. lofentanil, and relaxed with succinylcholine (5 mg/kg i.v.) followed by a continuous i.v. infusion of 1.5 mg/kg/h of etomidate and small additional doses of fentanyl (0.025 mg/kg i.v.) were given at 60 min intervals. The animals were ventilated and prepared for measurements of the surface ECG, aortic-, pulmonary- and left ventricular blood pressure, carotid blood flow, monophasic action potential, body temperature, blood gasses and EEG (see Van Deuren et al, J Pharmacol Toxicol Methods; 2009; 60: 11-23). Compound (−)-17 was dissolved in 20% hydroxypropyl-cyclodextrin with NaOH, HCl and mannitol in pyrogen-free water and administered intravenously (1 ml/kg) in increasing doses (0.16, 0.32, 0.63, 1.25, 2.5 and 5 mg/kg) over a period of 5 min at 30-min intervals. Plasma concentrations of Compound (−)-17 were measured before and at the end of each infusion. Corresponding volumes of vehicle were administered according to the same protocol in a second group of animals.

[3] = tested on: anesthetized dogs (Beagles); assay: as above; assay type: in vivo, dog; details: for Median plasma level: 5-min i.v. infusion
Description: as §1

COc1cc(N)c(Cl)cc1C(=O)NC1CCN(CCCOc2ccc(F)cc2)CC1(F)F (single isomer, unassigned) [Compound (−)-17, 4-amino-5-chloro-N-{3,3-difluoro-1-[3-(4-fluorophenoxy)-propyl]-piperidin-4-yl}-2-methoxybenzamide]
concentration at 5 min ([1]; dose 0.16 mg/kg (increasing doses, 15-min intervals)): 398 ng/mL | concentration at 5 min ([1]; dose 0.32 mg/kg (increasing doses, 15-min intervals)): 873 ng/mL | concentration at 5 min ([1]; dose 0.64 mg/kg (increasing doses, 15-min intervals)): 1820 ng/mL | concentration at 5 min ([1]; dose 1.25 mg/kg (increasing doses, 15-min intervals)): 3330 ng/mL | Cmax ([1]; dose 2.5 mg/kg (increasing doses, 15-min intervals)): 6320 ng/mL | Cmax ([1]; dose 5 mg/kg (increasing doses, 15-min intervals; total dose 9.87 mg/kg)): 12000 ng/mL | Cmax ([2]; dose 1.25 mg/kg (increasing doses, 30-min intervals), read-out: Median plasma level (Cmax)): 5200 ng/mL | Cmax ([2]; dose 2.5 mg/kg (increasing doses, 30-min intervals), read-out: Median plasma level (Cmax)): 9550 ng/mL | Cmax ([2]; dose 5 mg/kg (increasing doses, 30-min intervals; total dose 9.86 mg/kg), read-out: Median plasma level (median Cmax)): 20400 ng/mL | DPP, percentage change relative to vehicle ([3]; dog i.v. 0.16 mg/kg @ 5′): +3% | HR, percentage change relative to vehicle ([3]; dog i.v. 0.16 mg/kg @ 5′): −4% | LVdp/dtmax, percentage change relative to vehicle ([3]; dog i.v. 0.16 mg/kg @ 5′): −1% | MBP, percentage change relative to vehicle ([3]; dog i.v. 0.16 mg/kg @ 5′): +2% | PQ, percentage change relative to vehicle ([3]; dog i.v. 0.16 mg/kg @ 5′): −1% | QRS, percentage change relative to vehicle ([3]; dog i.v. 0.16 mg/kg @ 5′): +1% | QTcV, percentage change relative to vehicle ([3]; dog i.v. 0.16 mg/kg @ 5′): +2% | SPP, percentage change relative to vehicle ([3]; dog i.v. 0.16 mg/kg @ 5′): +2% | DPP, percentage change relative to vehicle ([3]; dog i.v. 0.16 mg/kg @ 30′): −3% | HR, percentage change relative to vehicle ([3]; dog i.v. 0.16 mg/kg @ 30′): −5% | LVdp/dtmax, percentage change relative to vehicle ([3]; dog i.v. 0.16 mg/kg @ 30′): +0% | MBP, percentage change relative to vehicle ([3]; dog i.v. 0.16 mg/kg @ 30′): +3% | PQ, percentage change relative to vehicle ([3]; dog i.v. 0.16 mg/kg @ 30′): −0% | QRS, percentage change relative to vehicle ([3]; dog i.v. 0.16 mg/kg @ 30′): +2% | QTcV, percentage change relative to vehicle ([3]; dog i.v. 0.16 mg/kg @ 30′): +4% | SPP, percentage change relative to vehicle ([3]; dog i.v. 0.16 mg/kg @ 30′): +5% | DPP, percentage change relative to vehicle ([3]; dog i.v. 0.32 mg/kg @ 5′): +0% | HR, percentage change relative to vehicle ([3]; dog i.v. 0.32 mg/kg @ 5′): −5% | LVdp/dtmax, percentage change relative to vehicle ([3]; dog i.v. 0.32 mg/kg @ 5′): +0% | MBP, percentage change relative to vehicle ([3]; dog i.v. 0.32 mg/kg @ 5′): +5% | PQ, percentage change relative to vehicle ([3]; dog i.v. 0.32 mg/kg @ 5′): −2% | QRS, percentage change relative to vehicle ([3]; dog i.v. 0.32 mg/kg @ 5′): +3% | QTcV, percentage change relative to vehicle ([3]; dog i.v. 0.32 mg/kg @ 5′): +2% | SPP, percentage change relative to vehicle ([3]; dog i.v. 0.32 mg/kg @ 5′): +11% | DPP, percentage change relative to vehicle ([3]; dog i.v. 0.32 mg/kg @ 30′): −8% | HR, percentage change relative to vehicle ([3]; dog i.v. 0.32 mg/kg @ 30′): +3% | LVdp/dtmax, percentage change relative to vehicle ([3]; dog i.v. 0.32 mg/kg @ 30′): −4% | MBP, percentage change relative to vehicle ([3]; dog i.v. 0.32 mg/kg @ 30′): +2% | PQ, percentage change relative to vehicle ([3]; dog i.v. 0.32 mg/kg @ 30′): −2% | QRS, percentage change relative to vehicle ([3]; dog i.v. 0.32 mg/kg @ 30′): +4% | QTcV, percentage change relative to vehicle ([3]; dog i.v. 0.32 mg/kg @ 30′): +1% | SPP, percentage change relative to vehicle ([3]; dog i.v. 0.32 mg/kg @ 30′): −3% | DPP, percentage change relative to vehicle ([3]; dog i.v. 0.63 mg/kg @ 5′): +0% | HR, percentage change relative to vehicle ([3]; dog i.v. 0.63 mg/kg @ 5′): −0% | LVdp/dtmax, percentage change relative to vehicle ([3]; dog i.v. 0.63 mg/kg @ 5′): −3% | MBP, percentage change relative to vehicle ([3]; dog i.v. 0.63 mg/kg @ 5′): +6% | PQ, percentage change relative to vehicle ([3]; dog i.v. 0.63 mg/kg @ 5′): +3% | QRS, percentage change relative to vehicle ([3]; dog i.v. 0.63 mg/kg @ 5′): +4% | QTcV, percentage change relative to vehicle ([3]; dog i.v. 0.63 mg/kg @ 5′): +1% | SPP, percentage change relative to vehicle ([3]; dog i.v. 0.63 mg/kg @ 5′): −2% | DPP, percentage change relative to vehicle ([3]; dog i.v. 0.63 mg/kg @ 30′): −9% | HR, percentage change relative to vehicle ([3]; dog i.v. 0.63 mg/kg @ 30′): +4% | LVdp/dtmax, percentage change relative to vehicle ([3]; dog i.v. 0.63 mg/kg @ 30′): −2% | MBP, percentage change relative to vehicle ([3]; dog i.v. 0.63 mg/kg @ 30′): +2% | PQ, percentage change relative to vehicle ([3]; dog i.v. 0.63 mg/kg @ 30′): −0% | QRS, percentage change relative to vehicle ([3]; dog i.v. 0.63 mg/kg @ 30′): +1% | QTcV, percentage change relative to vehicle ([3]; dog i.v. 0.63 mg/kg @ 30′): +4% | SPP, percentage change relative to vehicle ([3]; dog i.v. 0.63 mg/kg @ 30′): −1% | DPP, percentage change relative to vehicle ([3]; dog i.v. 1.25 mg/kg @ 5′): −7% | HR, percentage change relative to vehicle ([3]; dog i.v. 1.25 mg/kg @ 5′): −0% | LVdp/dtmax, percentage change relative to vehicle ([3]; dog i.v. 1.25 mg/kg @ 5′): −1% | MBP, percentage change relative to vehicle ([3]; dog i.v. 1.25 mg/kg @ 5′): +10% | PQ, percentage change relative to vehicle ([3]; dog i.v. 1.25 mg/kg @ 5′): +2% | QRS, percentage change relative to vehicle ([3]; dog i.v. 1.25 mg/kg @ 5′): +4% | QTcV, percentage change relative to vehicle ([3]; dog i.v. 1.25 mg/kg @ 5′): +2% | SPP, percentage change relative to vehicle ([3]; dog i.v. 1.25 mg/kg @ 5′): −1% | DPP, percentage change relative to vehicle ([3]; dog i.v. 1.25 mg/kg @ 30′): −12% | HR, percentage change relative to vehicle ([3]; dog i.v. 1.25 mg/kg @ 30′): −3% | LVdp/dtmax, percentage change relative to vehicle ([3]; dog i.v. 1.25 mg/kg @ 30′): −5% | MBP, percentage change relative to vehicle ([3]; dog i.v. 1.25 mg/kg @ 30′): +0% | PQ, percentage change relative to vehicle ([3]; dog i.v. 1.25 mg/kg @ 30′): +2% | QRS, percentage change relative to vehicle ([3]; dog i.v. 1.25 mg/kg @ 30′): +2% | QTcV, percentage change relative to vehicle ([3]; dog i.v. 1.25 mg/kg @ 30′): +1% | SPP, percentage change relative to vehicle ([3]; dog i.v. 1.25 mg/kg @ 30′): −9% | DPP, percentage change relative to vehicle ([3]; dog i.v. 2.5 mg/kg @ 5′): +1% | HR, percentage change relative to vehicle ([3]; dog i.v. 2.5 mg/kg @ 5′): −5% | LVdp/dtmax, percentage change relative to vehicle ([3]; dog i.v. 2.5 mg/kg @ 5′): −8% | PQ, percentage change relative to vehicle ([3]; dog i.v. 2.5 mg/kg @ 5′): +6% | QRS, percentage change relative to vehicle ([3]; dog i.v. 2.5 mg/kg @ 5′): +2% | QTcV, percentage change relative to vehicle ([3]; dog i.v. 2.5 mg/kg @ 5′): −3% | SPP, percentage change relative to vehicle ([3]; dog i.v. 2.5 mg/kg @ 5′): −1% | DPP, percentage change relative to vehicle ([3]; dog i.v. 2.5 mg/kg @ 30′): −24% | HR, percentage change relative to vehicle ([3]; dog i.v. 2.5 mg/kg @ 30′): −4% | LVdp/dtmax, percentage change relative to vehicle ([3]; dog i.v. 2.5 mg/kg @ 30′): +2% | MBP, percentage change relative to vehicle ([3]; dog i.v. 2.5 mg/kg @ 30′): +0% | PQ, percentage change relative to vehicle ([3]; dog i.v. 2.5 mg/kg @ 30′): +2% | QRS, percentage change relative to vehicle ([3]; dog i.v. 2.5 mg/kg @ 30′): +3% | QTcV, percentage change relative to vehicle ([3]; dog i.v. 2.5 mg/kg @ 30′): −1% | SPP, percentage change relative to vehicle ([3]; dog i.v. 2.5 mg/kg @ 30′): −15% | DPP, percentage change relative to vehicle ([3]; dog i.v. 5 mg/kg @ 5′): +17% | HR, percentage change relative to vehicle ([3]; dog i.v. 5 mg/kg @ 5′): −15% | LVdp/dtmax, percentage change relative to vehicle ([3]; dog i.v. 5 mg/kg @ 5′): −11% | PQ, percentage change relative to vehicle ([3]; dog i.v. 5 mg/kg @ 5′): +2% | QRS, percentage change relative to vehicle ([3]; dog i.v. 5 mg/kg @ 5′): +6% | QTcV, percentage change relative to vehicle ([3]; dog i.v. 5 mg/kg @ 5′): −3% | SPP, percentage change relative to vehicle ([3]; dog i.v. 5 mg/kg @ 5′): −10% | DPP, percentage change relative to vehicle ([3]; dog i.v. 5 mg/kg @ 30′): −5% | HR, percentage change relative to vehicle ([3]; dog i.v. 5 mg/kg @ 30′): −14% | LVdp/dtmax, percentage change relative to vehicle ([3]; dog i.v. 5 mg/kg @ 30′): +2% | MBP, percentage change relative to vehicle ([3]; dog i.v. 5 mg/kg @ 30′): +0% | QRS, percentage change relative to vehicle ([3]; dog i.v. 5 mg/kg @ 30′): +3% | QTcV, percentage change relative to vehicle ([3]; dog i.v. 5 mg/kg @ 30′): −2% | SPP, percentage change relative to vehicle ([3]; dog i.v. 5 mg/kg @ 30′): −7% | effect on heart rate, pulmonary artery pressure, LV end diastolic pressure, cardiac output, stroke volume, pressure rate product, PQ and QRS, lung function, body temperature, EEG ([3]; dog, 0.16 up to 5 mg/kg i.v., relative to vehicle): no relevant effect | Median plasma level ([3]; dog, dose 0.16 mg/kg (increasing doses, 30-min intervals)): 725 ng/mL | Median plasma level ([3]; dog, dose 0.32 mg/kg (increasing doses, 30-min intervals)): 1420 ng/mL | Median plasma level ([3]; dog, dose 0.64 mg/kg (increasing doses, 30-min intervals)): 2540 ng/mL | LV dp/dtmax/pd ([3]; dog, at 2.5 mg/kg i.v.): started to decrease | duration of QTc VDW and QTc VcT ([3]; dog, at 5 mg/kg i.v.): minor decrease | arterial blood pressure, vascular resistance (systemic and common carotid) and Tau ([3]; dog, from 1.25 mg/kg i.v. onwards): started to increase
